Earlier results on five molecules are cited in article PMC6906348 (Therapeutic Advances in Medical Oncology, 2019).

Like-named read-outs stand apart in the source and are kept apart here.

Data set [1] deals with patients progressing on or after sorafenib treatment (HCC). The following applies: cited from earlier work.
Data set [2] has as its system patients with unresectable advanced HCC. The following applies: cited from earlier work.
The test system is the same in data set [3]. The following applies: cited from earlier work. This is another data set of the same source.
Data set [4] has as its system Asian patients with advanced HCC. The following applies: cited from earlier work.
Data set [5] relates to patients with MET-high HCC. The following applies: MET-high HCC defined by IHC ⩾2+ in ⩾50% of tumor cells; cited from earlier work.
For data set [6], the system named is patients with advanced HCC. The following applies: cited from earlier work.

`CNC(=O)c1cc(Oc2ccc(NC(=O)Nc3ccc(Cl)c(C(F)(F)F)c3)c(F)c2)ccn1` [regorafenib]: the overall response rate in data set [1] (versus 4% in the placebo arm) was 11%. Also, in data set [1] (versus 7.8 months for placebo), the overall survival is given as 10.6 months.

For the molecule `CNC(=O)c1cc(Oc2ccc(NC(=O)Nc3ccc(Cl)c(C(F)(F)F)c3)cc2)ccn1` [sorafenib], the “HR, overall survival” value in data set [2] (sorafenib group versus placebo) was 0.68. Further, the median overall survival in data set [2] (versus 4.2 months for placebo) is 6.5 months; in data set [3] (versus 7.9 months for placebo), 10.7 months. Besides, the “hazard ratio (HR), overall survival” value in data set [3] (sorafenib group versus placebo) is given as 0.69. For the same molecule, the overall response rate in data set [3] (versus 1% for placebo) is on record as 2%. The “median time to progression (TTP)” value in data set [3] (versus 2.8 months for placebo) is 5.5 months. For the same molecule, in data set [3] (versus 32% for placebo), the disease control rate is given as 43%.

With `CN1CCC(COc2cnc(-c3cccc(Cn4nc(-c5cccc(C#N)c5)ccc4=O)c3)nc2)CC1` [tepotinib], the “MET-positive patients with partial responses” value in data set [4] (MET-positive defined as ⩾50% tumor IHC 2+/3+) is given as 2/7. Moreover, the “patients with partial responses” value in data set [4] (unselected patients, 2/27) is 7.4%. Also, the disease control rate in data set [4] (unselected patients) is on record as 37%.

In the case of `O=C1NC(=O)[C@@H](c2cn3c4c(cccc24)CCC3)[C@@H]1c1c[nH]c2ccccc12` [tivantinib], in data set [5], the study outcome is on record as “negative”.

Consider nivolumab, for which the overall response rate in data set [6] (all patients) was 20%; in data set [6] (sorafenib-treated patients) it was 14%.
